Source: paper PMC5635289, “Differential Effects of Angelicin Analogues on NF-κB Activity and IL-8 Gene Expression in Cystic Fibrosis IB3-1 Cells” (Mediators of Inflammation, 2017)

Key:
Format in all cases: cell-based, human
IL-8 mRNA = experiment: RT-qPCR quantification of IL-8 mRNA in TNF-α-induced IB3-1 cells; conditions: Homo sapiens, IB3-1, 24 h, TNF-α-induced IB3-1 cells, RT-qPCR, na = not active at the used concentrations
Method: Monolayers of 60% confluent IB3-1 cells were seeded in 6- or 12-well plates in LHC-8 medium in the presence of 5% FBS. After 24 h, pure derivatives were added, 5 h before stimulation with TNF-α 80 ng/ml (ORF Genetics, Kopavogur, Iceland), and incubated for a further 24 h. Total RNA was extracted using TRIzol Reagent (Sigma-Aldrich, St. Louis, MO) following the manufacturer's instructions. Reverse transcription (RT) was performed using Reverse Transcription System kit (Promega, Madison, WI): 1 μg of total RNA was reverse transcribed in the presence of 5 mM MgCl2, 1X reverse transcription buffer (10 mM Tris-HCl, 50 mM KCl, and 0.1% Triton X-100), 1 mM each dNTPs, 20 U recombinant Rnasin Ribonuclease Inhibitor, 15 U AMV Reverse Transcriptase, and 0.5 μg oligo(dT)15 primers in a total volume of 20 μl for 10 min at 70°C and 60 min at 42°C. The resulting cDNA was quantified by relative quantitative real-time PCR (real-time qPCR). For real-time qPCR, 1 μl of cDNA was used for each SYBR Green reaction to quantify the relative expression of IL-8. Each 25 μl of total reaction volume contained 1 μl of cDNA, 10 pmol of primers, 1 iQTM SYBR Green Supermix (Bio-Rad Laboratories Inc., Hercules, CA). Real-time PCRs were performed for a total of 40 cycles (denaturation, 95°C for 10 s; annealing, 68°C for 30 s for IL-8, 65°C for 30 s for IL-6; elongation, 72°C for 60 s) using an iCycler IQ5 (Bio-Rad Laboratories Inc., Hercules, CA). Primer sequences were as follows: IL-8 forward: 5′-GTGCAGTTTTGCCAAGGAGT-3′ and IL-8 reverse: 5′-TTATGAATTCTCAGCCCTCTTCAAAAACTTCTC-3′. The relative proportions of each amplified template were determined utilizing the threshold cycle (CT) value for each performed PCR. The DDCt method was used to compare gene expression data. Each sample was quantified in duplicate. Changes in mRNA expression level were calculated following normalization with the GAPDH calibrator gene (housekeeping gene) and expressed as fold change over untreated samples [24]. Duplicates of negative controls (no template cDNA) were also run with every experimental plate to assess specificity and indicate potential contamination.
With the aim to study the effective anti-inflammatory properties of these new psoralen derivatives, we decided to further characterize the TMA derivatives for their potential activities on the expression of IL-8 gene, known to be involved in the lung inflammatory process in CF. […] More specifically, we were first interested in identifying compounds with low antiproliferative activity, but effective in downmodulating inflammatory gene expression without achieving a full suppression of these genes. We therefore employed IB3-1 cystic fibrosis cells, incubated for 5 h with two concentrations (1 μM and 10 μM) of selected compounds, and then treated with TNF-α ([…]). In the IB3-1 cystic fibrosis cellular model, NF-κB-dependent genes, including the gene encoding for the proinflammatory protein IL-8, generally are activated following infection with P. aeruginosa or treatment with TNF-α or IL-1β [26, 28, 31]. This feature is very important in the pathophysiology of CF, since several clinical complications are caused by exacerbation of this inflammatory response. After 1 day of incubation, cellular RNA was isolated for RT-qPCR analysis. All the TMA analogues found to be active in inhibiting NF-κB/DNA interactions were analyzed for their effects on inhibition of TNF-α-induced accumulation of IL-8 mRNA.

IP-10 = experiment: Bioplex analysis of IP-10 secretion in TNF-α-induced IB3-1 cells; conditions: 1 μM, TNF-α-stimulated IB3-1 cells, three independent experiments
Method: (§1) The Bioplex cytokine assay is designed for the multiplexed quantitative measurement of multiple cytokines in a single well using as little as 50 μl of sample. In our experiments, the premixed multiplex beads (27-plex) of the Bioplex human cytokines were used. 50 μl of cytokine standards or samples (supernatants recovered from treated cells and diluted to 2 μg/μl) were incubated with 50 μl of anticytokine conjugated beads in 96-well filter plates for 30 min at room temperature with shaking. Plates were washed by vacuum filtration three times with 100 μl of Bioplex wash buffer, 25 μl of diluted detection antibody were added, and plates were incubated for 30 min at room temperature with shaking. After three filter washes, 50 μl of streptavidin-phycoerythrin were added, and the plates were incubated for 10 min at room temperature with shaking. Finally, plates were washed by vacuum filtration three times, beads were suspended in Bioplex assay buffer, and samples were analyzed on a Bio-Rad 96-well plate reader using the Bioplex Suspension Array System and Bioplex Manager software (Bio-Rad Laboratories Inc., Hercules, CA).
(§2) In order to verify the effects on the secretion of IL-8 by IB3-1 cells, Luminex technology was employed to detect and quantify proteins secreted into the medium. […]

[1] = tested on: other cytokines, chemokines, and growth factors; experiment: Bioplex analysis of other secreted proteins in TNF-α-induced IB3-1 cells; conditions: 1 μM, TNF-α-stimulated IB3-1 cells, all secreted proteins analyzed except IP-10
Method: as §1, §2

Cc1oc2c(C)cc3c(C)cc(=O)oc3c2c1C [Compound 1]
inhibition at 1 µM (IL-8 mRNA; 1 μM compound): 57%
inhibition at 10 µM (IL-8 mRNA; 10 μM compound): 56%
Increase of TNF-α-inducible IP-10 (IP-10): more than twofold
Variation of other secreted proteins [1]: less than 10%
